Data published in patent US11111237B2, “Bicyclic compound and use thereof” (SK BIOPHARMACEUTICALS CO., LTD., priority 2019, dated 2021).

Molecular target: PRMT5-MEP50 enzyme complex (Homo sapiens (Human), UniProt O14744)
Experiment: PRMT5 enzyme activity in vitro assay (methylation of histone H4R3, ELISA absorbance at 450 nm)
Format: biochemical
Conditions: SAM, histone H4 peptide, room temperature 2 hours, 8 points from 10 μM to 0.128 nM
Outline: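 IC50 was derived from ELISA absorbance at 450 nm, using primary and HRP antibodies against H4R3 methylation on immobilised histone H4 peptide (residues 1-20). Compounds (10 μM to 0.128 nM, 8 points, 1:5) were incubated 2 h at room temperature with the PRMT5-MEP50 complex and SAM, diluted to 5 μg/mL and 2 μM respectively.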

PRMT5-MEP50 enzyme complex, sequence (O14744 2-637): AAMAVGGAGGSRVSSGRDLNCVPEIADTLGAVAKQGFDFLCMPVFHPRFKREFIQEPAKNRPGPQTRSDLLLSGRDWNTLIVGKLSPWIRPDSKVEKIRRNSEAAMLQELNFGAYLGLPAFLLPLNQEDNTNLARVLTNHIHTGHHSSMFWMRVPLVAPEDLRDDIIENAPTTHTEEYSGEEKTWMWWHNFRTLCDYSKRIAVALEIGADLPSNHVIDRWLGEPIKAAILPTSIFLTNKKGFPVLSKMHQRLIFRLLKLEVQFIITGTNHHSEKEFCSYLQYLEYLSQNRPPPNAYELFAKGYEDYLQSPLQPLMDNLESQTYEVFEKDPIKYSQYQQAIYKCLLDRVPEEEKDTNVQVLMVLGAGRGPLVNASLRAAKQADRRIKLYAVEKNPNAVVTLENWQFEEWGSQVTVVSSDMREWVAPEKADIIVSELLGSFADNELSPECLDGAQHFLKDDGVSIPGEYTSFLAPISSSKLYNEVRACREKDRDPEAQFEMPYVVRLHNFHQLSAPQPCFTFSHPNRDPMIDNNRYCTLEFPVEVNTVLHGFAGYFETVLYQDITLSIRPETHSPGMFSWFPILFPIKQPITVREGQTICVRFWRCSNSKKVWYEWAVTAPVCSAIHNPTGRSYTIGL
PRMT5-MEP50 enzyme complex, sequence (Q9BQA1 2-342 partner): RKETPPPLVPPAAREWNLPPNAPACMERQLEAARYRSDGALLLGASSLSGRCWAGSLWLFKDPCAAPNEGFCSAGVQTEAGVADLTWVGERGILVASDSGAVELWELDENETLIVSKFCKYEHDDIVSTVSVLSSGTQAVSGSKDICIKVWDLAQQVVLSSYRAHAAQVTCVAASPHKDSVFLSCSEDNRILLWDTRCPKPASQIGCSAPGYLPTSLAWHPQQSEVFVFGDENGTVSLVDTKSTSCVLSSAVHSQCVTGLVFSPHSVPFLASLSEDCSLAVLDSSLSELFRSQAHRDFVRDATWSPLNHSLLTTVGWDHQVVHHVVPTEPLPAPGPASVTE

Row | Compound | IC50 [nM]
1 | CC1(C)CN(C[C@H](O)CN2CCc3ccccc3C2)C(=O)c2ccc(CN3CCCCC3)nc2O1 [Example 197, 4-[(2R)-3-(3,4-dihydro-1H-isoquinolin-2-yl)-2-hydroxy-propyl]-2,2-dimethyl-8-(1-piperidylmethyl)-3H-pyrido[3,2-f][1,4]oxazepin-5-one] | 100 to 1000
2 | CN(C1CCC(Oc2ccc3c(c2)OCCN(C[C@H](O)CN2CCc4ccccc4C2)C3=O)CC1)C1COC1 (stereo partly drawn) [Example 198, 4-[(2R)-3-(3,4-dihydro-1H-isoquinolin-2-yl)-2-hydroxypropyl]-8-[4-[methyl(oxetan-3-yl)amino]cyclohexoxy]-2,3-dihydro-1,4-benzoxazepin-5-one] | 1 to 100
3 | CN(CCF)C1CCC(Oc2ccc3c(c2)OCCN(C[C@H](O)CN2CCc4ccccc4C2)C3=O)CC1 (stereo partly drawn) [Example 199, 4-[(2R)-3-(3,4-dihydro-1H-isoquinolin-2-yl)-2-hydroxypropyl]-8-[4-[2-fluoroethyl(methyl)amino]cyclohexoxy]-2,3-dihydro-1,4-benzoxazepin-5-one] | 1 to 100
4 | C[C@H]1CN(C[C@H](O)CN2CCc3ccccc3C2)C(=O)c2ccc(OC3CN(CCF)C3)cc2O1 [Example 201, (2S)-4-[(2R)-3-(3,4-dihydro-1H-isoquinolin-2-yl)-2-hydroxy-propyl]-8-[1-(2-fluoroethyl)azetidin-3-yl]oxy-2-methyl-2,3-dihydro-1,4-benzoxazepin-5-one] | 100 to 1000
5 | C[C@H]1CN(C[C@H](O)CN2CCc3ccccc3C2)C(=O)c2ccc(OC3CCN(CCF)CC3)cc2O1 [Example 202, (2S)-4-[(2R)-3-(3,4-dihydro-1H-isoquinolin-2-yl)-2-hydroxy-propyl]-8-[1-(2-fluoroethyl)-4-piperidyl]oxy-2-methyl-2,3-dihydro-1,4-benzoxazepin-5-one] | 1 to 100
6 | CC1(C)CN(C[C@H](O)CN2CCc3ccccc3C2)C(=O)c2ccc(C(=O)N3C4CCC3COC4)cc2O1 [Example 203, 4-[(2R)-3-(3,4-dihydro-1H-isoquinolin-2-yl)-2-hydroxy-propyl]-2,2-dimethyl-8-(3-oxa-8-azabicyclo[3.2.1]octan-8-carbonyl)-3H-1,4-benzoxazepin-5-one] | 100 to 1000
7 | CC1(C)CN(C[C@H](O)CN2CCc3ccccc3C2)C(=O)c2ccc(C(=O)N3CC4CC3CO4)cc2O1 (stereo partly drawn) [Example 204, 4-[(2R)-3-(3,4-dihydro-1H-isoquinolin-2-yl)-2-hydroxy-propyl]-2,2-dimethyl-8-(2-oxa-5-azabicyclo[2.2.1]heptan-5-carbonyl)-3H-1,4-benzoxazepin-5-one] | 100 to 1000
8 | CC1COCC(C)N1C(=O)c1ccc2c(c1)OC(C)(C)CN(C[C@H](O)CN1CCc3ccccc3C1)C2=O (stereo partly drawn) [Example 205, 4-[(2R)-3-(3,4-dihydro-1H-isoquinolin-2-yl)-2-hydroxy-propyl]-8-(3,5-dimethylmorpholin-4-carbonyl)-2,2-dimethyl-3H-1,4-benzoxazepin-5-one] | 100 to 1000
9 | CN1CCC(Oc2ccc3c(c2)OCCN(C[C@H](O)CN2CCc4ccccc4C2)C3=O)C(F)C1 (stereo partly drawn) [Example 206, 4-[(2R)-3-(3,4-dihydro-1H-isoquinolin-2-yl)-2-hydroxy-propyl]-8-[(3-fluoro-1-methyl-4-piperidyl)oxy]-2,3-dihydro-1,4-benzoxazepin-5-one] | 100 to 1000
10 | O=C1c2ccc(OC3CCN(CCF)CC3F)cc2OCCN1C[C@H](O)CN1CCc2ccccc2C1 (stereo partly drawn) [Example 207, 4-[(2R)-3-(3,4-dihydro-1H-isoquinolin-2-yl)-2-hydroxy-propyl]-8-[[3-fluoro-1-(2-fluoroethyl)-4-piperidyl]oxy]-2,3-dihydro-1,4-benzoxazepin-5-one] | 100 to 1000
11 | O=C1c2ccc(OC3CCN(CCO)CC3F)cc2OCCN1C[C@H](O)CN1CCc2ccccc2C1 (stereo partly drawn) [Example 208, 4-[(2R)-3-(3,4-dihydro-1H-isoquinolin-2-yl)-2-hydroxy-propyl]-8-[[3-fluoro-1-(2-hydroxyethyl)-4-piperidyl]oxy]-2,3-dihydro-1,4-benzoxazepin-5-one] | 100 to 1000
12 | CC1(C)CN(C[C@H](O)CN2CCc3ccccc3C2)C(=O)c2ccc(C(=O)N3CCn4cccc4C3)cc2O1 [Example 209, 4-[(2R)-3-(3,4-dihydro-1H-isoquinolin-2-yl)-2-hydroxy-propyl]-8-(3,4-dihydro-1H-pyrrolo[1,2-a]pyrazine-2-carbonyl)-2,2-dimethyl-3H-1,4-benzoxazepin-5-one] | 100 to 1000
13 | CC1(C)CN(C[C@H](O)CN2CCc3ccccc3C2)C(=O)c2ccc(C(=O)N3CCN4CCCC4C3)cc2O1 (stereo partly drawn) [Example 210, 8-(3,4,6,7,8,8a-hexahydro-1H-pyrrolo[1,2-a]pyrazine-2-carbonyl)-4-[(2R)-3-(3,4-dihydro-1H-isoquinolin-2-yl)-2-hydroxy-propyl]-2,2-dimethyl-3H-1,4-benzoxazepin-5-one] | 100 to 1000
14 | O=C1c2ccc(Oc3ncc(F)cn3)cc2OCCN1C[C@H](O)CN1CCc2ccccc2C1 [Example 211, 4-[(2R)-3-(3,4-dihydro-1H-isoquinolin-2-yl)-2-hydroxy-propyl]-8-(5-fluoropyrimidin-2-yl)oxy-2,3-dihydro-1,4-benzoxazepin-5-one] | 100 to 1000
15 | CC(O)CN1CCC(Oc2ccc3c(c2)OCCN(C[C@H](O)CN2CCc4ccccc4C2)C3=O)CC1 (stereo partly drawn) [Example 212, 4-[(2R)-3-(3,4-dihydro-1H-isoquinolin-2-yl)-2-hydroxy-propyl]-8-[[1-(2-hydroxypropyl)-4-piperidyl]oxy]-2,3-dihydro-1,4-benzoxazepin-5-one] | 100 to 1000
16 | CN1CCC[C@H](Oc2ccc3c(c2)OCCN(C[C@H](O)CN2CCc4ccccc4C2)C3=O)C1 [Example 213, 4-[(2R)-3-(3,4-dihydro-1H-isoquinolin-2-yl)-2-hydroxy-propyl]-8-[(1-methyl-3-piperidyl)oxy]-2,3-dihydro-1,4-benzoxazepin-5-one] | 100 to 1000
17 | CCC(=O)c1ccc2c(c1)OCCN(C[C@H](O)CN1CCc3ccccc3C1)C2=O [Example 214, 4-[(2R)-3-(3,4-dihydro-1H-isoquinolin-2-yl)-2-hydroxy-propyl]-8-propanoyl-2,3-dihydro-1,4-benzoxazepin-5-one] | 100 to 1000
18 | O=C1c2ccc(OC3CC4CCC(C3)N4CCF)cc2OCCN1C[C@H](O)CN1CCc2ccccc2C1 (some centres unmarked) [Example 215] | 100 to 1000
19 | O=C(c1ccc2c(c1)OCCN(C[C@H](O)CN1CCc3ccccc3C1)C2=O)C1CC1 [Example 216, 8-(cyclopropanecarbonyl)-4-[(2R)-3-(3,4-dihydro-1H-isoquinolin-2-yl)-2-hydroxy-propyl]-2,3-dihydro-1,4-benzoxazepin-5-one] | 1 to 100
20 | O=C(c1ccc2c(c1)OCCN(C[C@H](O)CN1CCc3ccccc3C1)C2=O)C1CCCC1 [Example 217, 8-(cyclopentanecarbonyl)-4-[(2R)-3-(3,4-dihydro-1H-isoquinolin-2-yl)-2-hydroxy-propyl]-2,3-dihydro-1,4-benzoxazepin-5-one] | 100 to 1000
21 | CN1CCC[C@@H](Oc2ccc3c(c2)OCCN(C[C@H](O)CN2CCc4ccccc4C2)C3=O)C1 [Example 218, 4-[(2R)-3-(3,4-dihydro-1H-isoquinolin-2-yl)-2-hydroxypropyl]-8-[(1-methyl-3-piperidyl)oxy]-2,3-dihydro-1,4-benzoxazepin-5-one] | 100 to 1000
22 | C[C@@H]1CN(C[C@H](O)CN2CCc3ccccc3C2)C(=O)c2ccc(OC3CCN(CCO)CC3)cc2O1 [Example 219, (2R)-4-[(2R)-3-(3,4-dihydro-1H-isoquinolin-2-yl)-2-hydroxy-propyl]-8-[[1-(2-hydroxyethyl)-4-piperidyl]oxy]-2-methyl-2,3-dihydro-1,4-benzoxazepin-5-one] | 1 to 100
23 | C[C@@H]1CN(C[C@H](O)CN2CCc3ccccc3C2)C(=O)c2ccc(OC3CCN(CC(C)(C)O)CC3)cc2O1 [Example 220, (2R)-4-[(2R)-3-(3,4-dihydro-1H-isoquinolin-2-yl)-2-hydroxy-propyl]-8-[[1-(2-hydroxy-2-methyl-propyl)-4-piperidyl]oxy]-2-methyl-2,3-dihydro-1,4-benzoxazepin-5-one] | 100 to 1000
24 | CC(c1ccc2c(c1)OCCN(C[C@H](O)CN1CCc3ccccc3C1)C2=O)N1CCOCC1 (stereo partly drawn) [Example 221, 4-[(2R)-3-(3,4-dihydro-1H-isoquinolin-2-yl)-2-hydroxy-propyl]-8-(1-morpholinoethyl)-2,3-dihydro-1,4-benzoxazepin-5-one] | 100 to 1000
25 | CC(c1ccc2c(c1)OCCN(C[C@H](O)CN1CCc3ccccc3C1)C2=O)N1CC2(COC2)C1 (stereo partly drawn) [Example 222, 4-[(2R)-3-(3,4-dihydro-1H-isoquinolin-2-yl)-2-hydroxy-propyl]-8-[1-(2-oxa-6-azaspiro[3.3]heptan-6-yl)ethyl]-2,3-dihydro-1,4-benzoxazepin-5-one] | 100 to 1000
26 | O=C1c2ccc(C#CCO)cc2OCCN1C[C@H](O)CN1CCc2ccccc2C1 [Example 223, 4-[(2R)-3-(3,4-dihydro-1H-isoquinolin-2-yl)-2-hydroxy-propyl]-8-(3-hydroxypro-1-pynyl)-2,3-dihydro-1,4-benzoxazepin-5-one] | 100 to 1000
27 | COCCN1CCC(Oc2ccc3c(c2)O[C@H](C)CN(C[C@H](O)CN2CCc4ccccc4C2)C3=O)CC1 [Example 224, (2R)-4-[(2R)-3-(3,4-dihydro-1H-isoquinolin-2-yl)-2-hydroxy-propyl]-8-[[1-(2-methoxyethyl)-4-piperidyl]oxy]-2-methyl-2,3-dihydro-1,4-benzoxazepin-5-one] | 100 to 1000
28 | O=C1c2ccc(-c3ccncc3)cc2OCCN1C[C@H](O)CN1CCc2ccccc2C1 [Example 225, 4-[(2R)-3-(3,4-dihydro-1H-isoquinolin-2-yl)-2-hydroxy-propyl]-8-(4-pyridyl)-2,3-dihydro-1,4-benzoxazepin-5-one] | 100 to 1000
29 | O=C1c2ccc(C#Cc3ccncc3)cc2OCCN1C[C@H](O)CN1CCc2ccccc2C1 [Example 226, 4-[(2R)-3-(3,4-dihydro-1H-isoquinolin-2-yl)-2-hydroxy-propyl]-8-[2-(4-pyridyl)ethynyl]-2,3-dihydro-1,4-benzoxazepin-5-one] | 1 to 100
